Test results reported in patent publication US5219884A, “Immunosuppressant” (Taito Co., Ltd., priority 1990, dated 1993).
Read-outs that look alike come from different tables or passages of the source.

What was measured:
[1] = system: IL2-dependent mouse cell line CTLL-2; assay: suppression of IL-2 induced 3H-thymidine incorporation of CTLL-2; type: cell-based; settings: 72 hrs, second run (control 30168 cpm); for inhibition at 0.1 µg/mL / inhibition at 1 µg/mL: Mus musculus, CTLL-2; for inhibition at 0.1 µg/mL: read-out: Suppression
Description: IL2-dependent mouse cell line CTLL-2 cells were suspended in the RPMI1640 culture medium supplemented with 30% FCS to a concentration of 2×10^5 cells/ml. The suspension (50 μl) and 50 μl of concanavalin A-stimulated rat spleen cell culture supernatants containing IL2 were added to each well of 96-well microculture plates in which 100 μl of the test substance had been placed. After culturing at 37° C. in an atmosphere of 5% carbon dioxide for 20, 44, or 68 hours, 0.5 μCi/well of ^3 H-thymidine was added, and cultured for 4 hours under the same conditions. After termination of the culture, the cells were harvested by a cell harvester, and the radioactivity incorporated into the cells was measured by a liquid scintillation counter.

[2] = cytotoxicity to mouse L929 cells; type: cell-based; settings: mouse, l929 cells, read-out: Suppression
Description: (§1) Cytotoxicity to mouse L929 cells was assayed as follows:
(§2) L929 cells were suspended to the concentration of 1.5×10^5 cells/ml in the F12 culture medium supplemented with 10% FCS. One hundred μl of the suspension was added to each well of 96-well microculture plates, and cultured at 37° C. in an atmosphere of 5% carbon dioxide for 24 hours, to which 100 μl of the test solution was added and cultured for further 48 hours. After the culture, 100 μl of the supernatant was removed and the absorbancy at 550 nm was measured in the same way as the colormetry using MTT in Experimental Example 1. The percent suppression was calculated by the following formula used as the index of cytotoxicity. [formula]

[3] = system: mouse L929 cells; assay: cytotoxicity to mouse L929 cells; type: cell-based; settings: 550 nm
Description: as §1, §2

[4] = in vitro; type: cell-based, human; settings: human, read-out: Suppression
Description: (§3) Cytotoxicity to human tumor cell lines was examined as follows:
(§4) Cells of human cell lines, K562, MOLT4, U937, HL60, KATOIII, KB, PC-6, PC-14 and CCRF-CEM were separately suspended to the concentration of 2×10^5 cells/ml in the RPMI1640 culture medium supplemented with 20% FCS. Fifty μl of this suspension was added to each well of 96-well microculture plates to which 50 μl of the test solution had been added. After culturing at 37° C. in an atmosphere of 5% carbon dioxide for 72 hours, the absorbancy at 550 nm was measured in the same way as the colorimetry using MTT in Experimental Example 1, and the percent suppression was calculated in the same manner as in Experimental Example 14, which was used as the index of cytotoxicity.

[5] = system: CCRF-CEM; assay: in vitro; type: cell-based, human
Description: as §3, §4

[6] = system: HL60; assay: in vitro; type: cell-based, human
Description: as §3, §4

[7] = system: K562; assay: in vitro; type: cell-based, human
Description: as §3, §4

[8] = system: KB; assay: in vitro; type: cell-based, human
Description: as §3, §4

[9] = system: PC-14; assay: in vitro; type: cell-based, human
Description: as §3, §4

[10] = system: U937; assay: in vitro; type: cell-based, human
Description: as §3, §4

[11] = cytotoxicity to tumor cell line MOLT4; type: cell-based, human; settings: human, molt4 cells, read-out: Suppression
Description: as §3, §4

[12] = system: MOLT4; assay: cytotoxicity to tumor cell line MOLT4; type: cell-based, human
Description: as §3, §4

CCCCCCC(O)CCCCCC/C=C/CC1OC(=O)C(N)(CO)C1O (centres unmarked) [Example 8] showed a 3H-thymidine uptake ([1]; 0.1 μg/ml) of 7262 cpm, a 3H-thymidine uptake ([1]; 1 μg/ml) of 1591 cpm and an inhibition at 0.1 µg/mL ([1]; 0.1 μg/ml) of 76.1%. For the same compound, the inhibition at 1 µg/mL ([1]; 1 μg/ml) was 94.9%, the cytotoxicity at 48 h ([2]; 1 μg/ml) was 0% and the cytotoxicity at 48 h ([2]; 10 μg/ml) was 0%. The cytotoxicity at 48 h ([2]; 100 μg/ml) was 96%, the Absorbancy ([3]; 1 μg/ml) was 0.817 and the Absorbancy ([3]; 10 μg/ml) was 0.738. For the same compound, the Absorbancy ([3]; 100 μg/ml) was 0.023, the cytotoxicity at 72 h ([4]; ccrf-cem cells, 0.1 μg/ml) was 0% and the cytotoxicity at 72 h ([4]; ccrf-cem cells, 1.0 μg/ml) was 0%. For the same compound, the cytotoxicity at 72 h ([4]; ccrf-cem cells, 10.0 μg/ml) was 3.9%, the cytotoxicity at 72 h ([4]; hl60 cells, 0.1 μg/ml) was 16.9% and the cytotoxicity at 72 h ([4]; hl60 cells, 1.0 μg/ml) was 14.8%. It also gave a cytotoxicity at 72 h ([4]; hl60 cells, 10.0 μg/ml) of 19.9%, a cytotoxicity at 72 h ([4]; k562 cells, 0.1 μg/ml) of 15.1% and a cytotoxicity at 72 h ([4]; k562 cells, 1.0 μg/ml) of 16.6%. For the same compound, the cytotoxicity at 72 h ([4]; k562 cells, 10.0 μg/ml) was 22.6%, the cytotoxicity at 72 h ([4]; kb cells, 0.1 μg/ml) was 0% and the cytotoxicity at 72 h ([4]; kb cells, 1.0 μg/ml) was 0%. It also gave a cytotoxicity at 72 h ([4]; kb cells, 10.0 μg/ml) of 3.3%, a cytotoxicity at 72 h ([4]; pc-14 cells, 0.1 μg/ml) of 4.6% and a cytotoxicity at 72 h ([4]; pc-14 cells, 1.0 μg/ml) of 10.3%. For the same compound, the cytotoxicity at 72 h ([4]; pc-14 cells, 10.0 μg/ml) was 31.2%, the cytotoxicity at 72 h ([4]; u937 cells, 0.1 μg/ml) was 0% and the cytotoxicity at 72 h ([4]; u937 cells, 1.0 μg/ml) was 0.5%. The cytotoxicity at 72 h ([4]; u937 cells, 10.0 μg/ml) was 12%, the Absorbancy ([5]; 0.1 μg/ml) was 0.720 and the Absorbancy ([5]; 1.0 μg/ml) was 0.694. The Absorbancy ([5]; 10.0 μg/ml) was 0.665, the Absorbancy ([6]; 0.1 μg/ml) was 0.434 and the Absorbancy ([6]; 1.0 μg/ml) was 0.445. For the same compound, the Absorbancy ([6]; 10.0 μg/ml) was 0.418, the Absorbancy ([7]; 0.1 μg/ml) was 0.327 and the Absorbancy ([7]; 1.0 μg/ml) was 0.321. It also gave an Absorbancy ([7]; 10.0 μg/ml) of 0.298, an Absorbancy ([8]; 0.1 μg/ml) of 0.741 and an Absorbancy ([8]; 1.0 μg/ml) of 0.749. It also gave an Absorbancy ([8]; 10.0 μg/ml) of 0.706, an Absorbancy ([9]; 0.1 μg/ml) of 0.452 and an Absorbancy ([9]; 1.0 μg/ml) of 0.425. It also gave an Absorbancy ([9]; 10.0 μg/ml) of 0.326, an Absorbancy ([10]; 0.1 μg/ml) of 0.590 and an Absorbancy ([10]; 1.0 μg/ml) of 0.580. The Absorbancy ([10]; 10.0 μg/ml) was 0.513, the cytotoxicity at 72 h ([11]; 0.1 μg/ml) was 2.1% and the cytotoxicity at 72 h ([11]; 1.0 μg/ml) was 5.5%. For the same compound, the cytotoxicity at 72 h ([11]; 10.0 μg/ml) was 8.3%, the Absorbancy ([12]; 0.1 μg/ml) was 0.142 and the Absorbancy ([12]; 1.0 μg/ml) was 0.137. The Absorbancy ([12]; 10.0 μg/ml) was 0.133.
With CCCCCCC(O)CCCCCCCCCC1OC(=O)C(N)(CO)C1O (centres unmarked) [Example 10] the 3H-thymidine uptake ([1]; 0.1 μg/ml) was 28083 cpm, the 3H-thymidine uptake ([1]; 1 μg/ml) was 1844 cpm and the inhibition at 0.1 µg/mL ([1]; 0.1 μg/ml) was 6.9%. The inhibition at 1 µg/mL ([1]; 1 μg/ml) was 94.1%, the cytotoxicity at 48 h ([2]; 1 μg/ml) was 0% and the cytotoxicity at 48 h ([2]; 10 μg/ml) was 0%. The cytotoxicity at 48 h ([2]; 100 μg/ml) was 96%, the Absorbancy ([3]; 1 μg/ml) was 0.722 and the Absorbancy ([3]; 10 μg/ml) was 0.661. The Absorbancy ([3]; 100 μg/ml) was 0.023, the cytotoxicity at 72 h ([4]; ccrf-cem cells, 0.1 μg/ml) was 2.9% and the cytotoxicity at 72 h ([4]; ccrf-cem cells, 1.0 μg/ml) was 6.5%. It also gave a cytotoxicity at 72 h ([4]; ccrf-cem cells, 10.0 μg/ml) of 6.8%, a cytotoxicity at 72 h ([4]; hl60 cells, 0.1 μg/ml) of 14.4% and a cytotoxicity at 72 h ([4]; hl60 cells, 1.0 μg/ml) of 20.5%. For the same compound, the cytotoxicity at 72 h ([4]; hl60 cells, 10.0 μg/ml) was 22.3%, the cytotoxicity at 72 h ([4]; k562 cells, 0.1 μg/ml) was 0% and the cytotoxicity at 72 h ([4]; k562 cells, 1.0 μg/ml) was 10.9%. The cytotoxicity at 72 h ([4]; k562 cells, 10.0 μg/ml) was 19.2%, the cytotoxicity at 72 h ([4]; kb cells, 0.1 μg/ml) was 0% and the cytotoxicity at 72 h ([4]; kb cells, 1.0 μg/ml) was 0%. The cytotoxicity at 72 h ([4]; kb cells, 10.0 μg/ml) was 16.4%, the cytotoxicity at 72 h ([4]; pc-14 cells, 0.1 μg/ml) was 8.6% and the cytotoxicity at 72 h ([4]; pc-14 cells, 1.0 μg/ml) was 13.3%. The cytotoxicity at 72 h ([4]; pc-14 cells, 10.0 μg/ml) was 33.1%, the cytotoxicity at 72 h ([4]; u937 cells, 0.1 μg/ml) was 6.5% and the cytotoxicity at 72 h ([4]; u937 cells, 1.0 μg/ml) was 7.2%. For the same compound, the cytotoxicity at 72 h ([4]; u937 cells, 10.0 μg/ml) was 11.3%, the Absorbancy ([5]; 0.1 μg/ml) was 0.672 and the Absorbancy ([5]; 1.0 μg/ml) was 0.647. The Absorbancy ([5]; 10.0 μg/ml) was 0.645, the Absorbancy ([6]; 0.1 μg/ml) was 0.447 and the Absorbancy ([6]; 1.0 μg/ml) was 0.415. It also gave an Absorbancy ([6]; 10.0 μg/ml) of 0.406, an Absorbancy ([7]; 0.1 μg/ml) of 0.390 and an Absorbancy ([7]; 1.0 μg/ml) of 0.343. The Absorbancy ([7]; 10.0 μg/ml) was 0.311, the Absorbancy ([8]; 0.1 μg/ml) was 0.743 and the Absorbancy ([8]; 1.0 μg/ml) was 0.735. For the same compound, the Absorbancy ([8]; 10.0 μg/ml) was 0.610, the Absorbancy ([9]; 0.1 μg/ml) was 0.433 and the Absorbancy ([9]; 1.0 μg/ml) was 0.411. For the same compound, the Absorbancy ([9]; 10.0 μg/ml) was 0.317, the Absorbancy ([10]; 0.1 μg/ml) was 0.545 and the Absorbancy ([10]; 1.0 μg/ml) was 0.541. For the same compound, the Absorbancy ([10]; 10.0 μg/ml) was 0.517, the cytotoxicity at 72 h ([11]; 0.1 μg/ml) was 0% and the cytotoxicity at 72 h ([11]; 1.0 μg/ml) was 0%. The cytotoxicity at 72 h ([11]; 10.0 μg/ml) was 0%, the Absorbancy ([12]; 0.1 μg/ml) was 0.148 and the Absorbancy ([12]; 1.0 μg/ml) was 0.159. For the same compound, the Absorbancy ([12]; 10.0 μg/ml) was 0.170.
